The NIST ThermoML archive (doi:10.1021/acs.jced.5b00051)
Numbers after ± are expanded uncertainties.

Assay: molar heat capacity at constant pressure
Conditions: 307.15 K; 101.33 kPa; Liquid; Large sample (1 g) DSC

In order of falling “molar heat capacity at constant pressure” value:
1. COCCOCCOCCOCCO [3,6,9,12-tetraoxatridecanol]  450.5 ± 7 J/K/mol
2. CCCCOCCOCCO [3,6-dioxa-1-decanol]  364.2 ± 5.6 J/K/mol
3. CCOCCOCCO [3,6-dioxa-1-octanol]  304.3 ± 4.7 J/K/mol

Same assay, conditions: 309.15 K; 101.33 kPa; Liquid; Large sample (1 g) DSC

In order of rising “molar heat capacity at constant pressure” value:
1. CCOCCOCCO [3,6-dioxa-1-octanol]  304.9 ± 4.7 J/K/mol
2. CCCCOCCOCCO [3,6-dioxa-1-decanol]  365.1 ± 5.7 J/K/mol
3. COCCOCCOCCOCCO [3,6,9,12-tetraoxatridecanol]  451 ± 7 J/K/mol

Same assay, conditions: 311.15 K; 101.33 kPa; Liquid; Large sample (1 g) DSC

In order of falling “molar heat capacity at constant pressure” value:
1. COCCOCCOCCOCCO [3,6,9,12-tetraoxatridecanol]  451.5 ± 7 J/K/mol
2. CCCCOCCOCCO [3,6-dioxa-1-decanol]  366 ± 5.7 J/K/mol
3. CCOCCOCCO [3,6-dioxa-1-octanol]  305.5 ± 4.7 J/K/mol

Same assay, conditions: 313.15 K; 101.33 kPa; Liquid; Large sample (1 g) DSC

In order of falling “molar heat capacity at constant pressure” value:
1. COCCOCCOCCOCCO [3,6,9,12-tetraoxatridecanol]  452 ± 7 J/K/mol
2. CCCCOCCOCCO [3,6-dioxa-1-decanol]  366.9 ± 5.7 J/K/mol
3. CCOCCOCCO [3,6-dioxa-1-octanol]  306.2 ± 4.7 J/K/mol

Same assay, conditions: 315.15 K; 101.33 kPa; Liquid; Large sample (1 g) DSC

In order of falling “molar heat capacity at constant pressure” value:
1. COCCOCCOCCOCCO [3,6,9,12-tetraoxatridecanol]  452.5 ± 7 J/K/mol
2. CCCCOCCOCCO [3,6-dioxa-1-decanol]  367.9 ± 5.7 J/K/mol
3. CCOCCOCCO [3,6-dioxa-1-octanol]  306.9 ± 4.8 J/K/mol

Same assay, conditions: 317.15 K; 101.33 kPa; Liquid; Large sample (1 g) DSC

In order of falling “molar heat capacity at constant pressure” value:
1. COCCOCCOCCOCCO [3,6,9,12-tetraoxatridecanol]  453 ± 7 J/K/mol
2. CCCCOCCOCCO [3,6-dioxa-1-decanol]  368.8 ± 5.7 J/K/mol
3. CCOCCOCCO [3,6-dioxa-1-octanol]  307.5 ± 4.8 J/K/mol

Same assay, conditions: 319.15 K; 101.33 kPa; Liquid; Large sample (1 g) DSC

In order of falling “molar heat capacity at constant pressure” value:
1. COCCOCCOCCOCCO [3,6,9,12-tetraoxatridecanol]  453.6 ± 7 J/K/mol
2. CCCCOCCOCCO [3,6-dioxa-1-decanol]  369.8 ± 5.7 J/K/mol
3. CCOCCOCCO [3,6-dioxa-1-octanol]  308.2 ± 4.8 J/K/mol

Same assay, conditions: 321.15 K; 101.33 kPa; Liquid; Large sample (1 g) DSC

In order of rising “molar heat capacity at constant pressure” value:
1. CCOCCOCCO [3,6-dioxa-1-octanol]  309 ± 4.8 J/K/mol
2. CCCCOCCOCCO [3,6-dioxa-1-decanol]  370.8 ± 5.7 J/K/mol
3. COCCOCCOCCOCCO [3,6,9,12-tetraoxatridecanol]  454.2 ± 7 J/K/mol

Same assay, conditions: 323.15 K; 101.33 kPa; Liquid; Large sample (1 g) DSC

In order of rising “molar heat capacity at constant pressure” value:
1. CCOCCOCCO [3,6-dioxa-1-octanol]  309.7 ± 4.8 J/K/mol
2. CCCCOCCOCCO [3,6-dioxa-1-decanol]  371.8 ± 5.8 J/K/mol
3. COCCOCCOCCOCCO [3,6,9,12-tetraoxatridecanol]  454.8 ± 7 J/K/mol

Same assay, conditions: 325.15 K; 101.33 kPa; Liquid; Large sample (1 g) DSC

In order of rising “molar heat capacity at constant pressure” value:
1. CCOCCOCCO [3,6-dioxa-1-octanol]  310.4 ± 4.8 J/K/mol
2. CCCCOCCOCCO [3,6-dioxa-1-decanol]  372.8 ± 5.8 J/K/mol
3. COCCOCCOCCOCCO [3,6,9,12-tetraoxatridecanol]  455.4 ± 7.1 J/K/mol

Same assay, conditions: 327.15 K; 101.33 kPa; Liquid; Large sample (1 g) DSC

In order of rising “molar heat capacity at constant pressure” value:
1. CCOCCOCCO [3,6-dioxa-1-octanol]  311.2 ± 4.8 J/K/mol
2. CCCCOCCOCCO [3,6-dioxa-1-decanol]  373.8 ± 5.8 J/K/mol
3. COCCOCCOCCOCCO [3,6,9,12-tetraoxatridecanol]  456 ± 7.1 J/K/mol

Same assay, conditions: 329.15 K; 101.33 kPa; Liquid; Large sample (1 g) DSC

In order of rising “molar heat capacity at constant pressure” value:
1. CCOCCOCCO [3,6-dioxa-1-octanol]  312 ± 4.8 J/K/mol
2. CCCCOCCOCCO [3,6-dioxa-1-decanol]  374.8 ± 5.8 J/K/mol
3. COCCOCCOCCOCCO [3,6,9,12-tetraoxatridecanol]  456.6 ± 7.1 J/K/mol

Same assay, conditions: 331.15 K; 101.33 kPa; Liquid; Large sample (1 g) DSC

In order of rising “molar heat capacity at constant pressure” value:
1. CCOCCOCCO [3,6-dioxa-1-octanol]  312.8 ± 4.8 J/K/mol
2. CCCCOCCOCCO [3,6-dioxa-1-decanol]  375.8 ± 5.8 J/K/mol
3. COCCOCCOCCOCCO [3,6,9,12-tetraoxatridecanol]  457.3 ± 7.1 J/K/mol

Same assay, conditions: 333.15 K; 101.33 kPa; Liquid; Large sample (1 g) DSC

In order of rising “molar heat capacity at constant pressure” value:
1. CCOCCOCCO [3,6-dioxa-1-octanol]  313.6 ± 4.9 J/K/mol
2. CCCCOCCOCCO [3,6-dioxa-1-decanol]  376.9 ± 5.8 J/K/mol
3. COCCOCCOCCOCCO [3,6,9,12-tetraoxatridecanol]  458 ± 7.1 J/K/mol

Same assay, conditions: 335.15 K; 101.33 kPa; Liquid; Large sample (1 g) DSC

In order of rising “molar heat capacity at constant pressure” value:
1. CCOCCOCCO [3,6-dioxa-1-octanol]  314.4 ± 4.9 J/K/mol
2. CCCCOCCOCCO [3,6-dioxa-1-decanol]  377.9 ± 5.9 J/K/mol
3. COCCOCCOCCOCCO [3,6,9,12-tetraoxatridecanol]  458.7 ± 7.1 J/K/mol

Same assay, conditions: 337.15 K; 101.33 kPa; Liquid; Large sample (1 g) DSC

In order of rising “molar heat capacity at constant pressure” value:
1. CCOCCOCCO [3,6-dioxa-1-octanol]  315.2 ± 4.9 J/K/mol
2. CCCCOCCOCCO [3,6-dioxa-1-decanol]  379 ± 5.9 J/K/mol
3. COCCOCCOCCOCCO [3,6,9,12-tetraoxatridecanol]  459.4 ± 7.1 J/K/mol

Same assay, conditions: 339.15 K; 101.33 kPa; Liquid; Large sample (1 g) DSC

In order of falling “molar heat capacity at constant pressure” value:
1. COCCOCCOCCOCCO [3,6,9,12-tetraoxatridecanol]  460.1 ± 7.1 J/K/mol
2. CCCCOCCOCCO [3,6-dioxa-1-decanol]  380.1 ± 5.9 J/K/mol
3. CCOCCOCCO [3,6-dioxa-1-octanol]  316.1 ± 4.9 J/K/mol
